Test results taken from patent publication US12624012B2, “14-chloro-β-elemene nitric oxide donor derivative and preparation method and use thereof” (HANGZHOU NORMAL UNIVERSITY, priority 2021, dated 2026).
Read-outs that look alike come from different tables or passages of the source. Values belong to the compound of their own block, whether it stands above or below them.

Experiments:
U87MG = test: In vitro anti-tumor activity evaluation test (CCK-8), U87MG; format: cell-based, human; conditions: 72 h; for IC50: read-out: IC50 against different tumor cell lines; for inhibition at 1 µM: read-out: Inhibitory rates against tumor cell lines
Experimental: (§1) • (1) Cells were digested and counted. Cell suspensions (H520, SW620 5.0×10^4 cells/mL, and U87MG 3.5×10^4 cells/mL) were prepared. 100 μL of cell suspension was added to each well of a 96-well cell culture plate. • (2) The 96-well cell culture plate was incubated in a 37° C., 5%, CO2 incubator for 24 h. • (3) A drug was diluted with a culture medium to a desired working solution concentration. 100 μL of the corresponding drug-containing culture medium was added to each well. At the same time, a negative control group and a positive control group were set up. • (4) The 96-well cell culture plate was incubated in a 37° C., 5%, CO2 incubator for 72 h. • (5) The 96-well plate was stained with CCK-8, and at λ=450 nm, the OD value was determined. • 1) 10 μL of CCK-8 was added to each well. The culture plate continued to be incubated in the incubator for 2-3 h. • 2) The culture plate was rocked for 10 min to gently mix and remove air bubbles from the 96-well plate. • 3) At λ=450 nm, the OD value of each well was read by the enzyme marker, and the inhibitory rates were calculated. • (6) According to the following equation (1), the growth inhibitory rate of the tumor cells was obtained. The obtained results were substituted into an IC 50 calculation software SPSS17.0 to find out the IC50 value.

SW620 = test: In vitro anti-tumor activity evaluation test (CCK-8), SW620; format: cell-based, human; conditions: for IC50: read-out: IC50 against different tumor cell lines; for inhibition at 1 µM: read-out: Inhibitory rates against tumor cell lines
Experimental: as §1

NCI-H520 = test: In vitro anti-tumor activity evaluation test (CCK-8), NCI-H520; format: cell-based, human; conditions: for IC50: read-out: IC50 against different tumor cell lines; for inhibition at 1 µM: read-out: Inhibitory rates against tumor cell lines
Experimental: as §1

[1] = In vitro NO release test (incubation with L-cysteine, OD at 550 nm); conditions: 100 μM solution with cysteine solution, 37° C.
Experimental: • (1) Sodium nitrite solutions with different concentrations were prepared. A calibration curve was drawn. • (2) The sample was treated. A 100 μM solution was prepared. 2.5 mL of the prepared compound solution and 2.5 mL of the cysteine solution were taken and incubated at 37° C. for 120 min, and the resulting mixture was sampled at different time points. • (3) A blank hole and a standard hole were set. 160 μL of the sample was collected and mixed evenly with 0.08 mL of a developer and stood at 37° C. for 15 min. At λ=550 nm, the OD value of absorbance was measured by the enzyme marker. The NO release levels were obtained by substituting the value into the standard curve.

[2] = Homo sapiens, U-87 MG, U87MG, 1 μM
[3] = Homo sapiens, SW-620, SW620, 1 μM, 72 h
[4] = Homo sapiens, NCI-H520, 1 μM, 72 h

- IC50 (U87MG; U87MG): > 100000 nM
- IC50 (SW620; SW620, 72 h): > 100000 nM
- IC50 (NCI-H520; NCI-H520, 72 h): > 100000 nM
SMILES: C=CC1(C)CCC(C(=C)CCl)CC1C(=C)CCl (stereo not drawn) [13,14-dichloro-β-elemene, reference compound]
- Inhibitory rates against tumor cell lines (U87MG; U87MG, 1 μM): 3.5 ± 1.0%
- Inhibitory rates against tumor cell lines (SW620; SW620, 1 μM, 72 h): 3.3 ± 1.0%
- Inhibitory rates against tumor cell lines (NCI-H520; NCI-H520, 1 μM, 72 h): 0.9 ± 3.0%

SMILES: C=C[C@]1(C)CC[C@@H](C(=C)CN(C)CCOC(=O)CCC(=O)OCCOc2no[n+]([O-])c2S(=O)(=O)c2ccccc2)C[C@H]1C(=C)CCl [Example 1, 4-(2-((4-(2-((2-((1R,3R,4S)-3-(3-chloroprop-1-en-2-yl)-4-methyl-4-vinylcyclohexyl))(methyl)amino)ethyoxyl)-4-oxobutanoyl)oxy)ethyoxyl)-3-(phenylsulfonyl)-1,2,5-oxadiazole 2-oxide]
- inhibition at 1 µM (U87MG; [2]): 39.5 ± 2.1%
- NO-release concentrations ([1]; 5 min): 1.73 µM
- NO-release concentrations ([1]; 10 min): 2.31 µM
- NO-release concentrations ([1]; 20 min): 2.90 µM
- NO-release concentrations ([1]; 30 min): 4.04 µM
- NO-release concentrations ([1]; 60 min): 7.76 µM
- NO-release concentrations ([1]; 90 min): 12.67 µM
- NO-release concentrations ([1]; 120 min): 17.21 µM
- inhibition at 1 µM (SW620; [3]): 30.7 ± 3.5%
- inhibition at 1 µM (NCI-H520; [4]): 28.8 ± 0.8%

- IC50 (U87MG; Homo sapiens, U-87 MG, U87MG): 358 ± 23 nM
- IC50 (NCI-H520; Homo sapiens, NCI-H520, 72 h): 777 ± 24 nM
SMILES: C=C[C@]1(C)CC[C@@H](C(=C)CN(C)CCOC(=O)CCCC(=O)OCCOc2no[n+]([O-])c2S(=O)(=O)c2ccccc2)C[C@H]1C(=C)CCl [Example 2, 4-(2-((5-(2-((2-((1R,3R,4S)-3-(3-chloroprop-1-en-2-yl)-4-methyl-4-vinylcyclohexyl)allyl)(methyl)amino)ethyoxyl)-5-oxopentanoyl)oxy)ethyoxyl)-3-(phenylsulfonyl)-1,2,5-oxadiazole 2-oxide]
- inhibition at 1 µM (U87MG; [2]): 56 ± 2.1%
- NO-release concentrations ([1]; 5 min): 2.10 µM
- NO-release concentrations ([1]; 10 min): 2.40 µM
- NO-release concentrations ([1]; 20 min): 2.84 µM
- NO-release concentrations ([1]; 30 min): 3.79 µM
- NO-release concentrations ([1]; 60 min): 6.74 µM
- NO-release concentrations ([1]; 90 min): 10.72 µM
- NO-release concentrations ([1]; 120 min): 14.97 µM
- inhibition at 1 µM (SW620; [3]): 42.3 ± 3.7%
- inhibition at 1 µM (NCI-H520; [4]): 48.5 ± 3%

SMILES: C=C[C@]1(C)CC[C@@H](C(=C)CN(C)CCOC(=O)CCC(=O)OCC#CCOc2no[n+]([O-])c2S(=O)(=O)c2ccccc2)C[C@H]1C(=C)CCl [Example 3, 4-((4-((4-(2-((2-((1R,3R,4S)-3-(3-chloroprop-1-en-2-yl)-4-methyl-4-vinylcyclohexyl)allyl)(methyl)amino)ethyoxyl)-4-oxobutanoyl)oxy)but-2-yn-1-yl)oxy)-3-(phenylsulfonyl)-1,2,5-oxadiazole 2-oxide]
- inhibition at 1 µM (U87MG; [2]): 34.9 ± 0.6%
- NO-release concentrations ([1]; 5 min): 10.78 µM
- NO-release concentrations ([1]; 10 min): 12.02 µM
- NO-release concentrations ([1]; 20 min): 15.83 µM
- NO-release concentrations ([1]; 30 min): 19.79 µM
- NO-release concentrations ([1]; 60 min): 32.99 µM
- NO-release concentrations ([1]; 90 min): 48.39 µM
- NO-release concentrations ([1]; 120 min): 58.84 µM
- inhibition at 1 µM (SW620; [3]): 30.1 ± 5.2%
- inhibition at 1 µM (NCI-H520; [4]): 35 ± 2.2%

SMILES: C=C[C@]1(C)CC[C@@H](C(=C)CN(CCOC(=O)CCC(=O)OCC#CCOc2no[n+]([O-])c2S(=O)(=O)c2ccccc2)C(C)C)C[C@H]1C(=C)CCl [Example 7, 4-((4-((4-(2-((2-((1R,3R,4S)-3-(3-chloroprop-1-en-2-yl)-4-methyl-4-vinylcyclohexyl)allyl)(isopropyl)amino)ethyoxyl)-4-oxobutanoyl)oxy)but-2-yn-1-yl)oxy)-3-(phenylsulfonyl)-1,2,5-oxadiazole 2-oxide]
- IC50 (U87MG; Homo sapiens, U-87 MG): 882 ± 34 nM
- inhibition at 1 µM (U87MG; Homo sapiens, U-87 MG): 56.7 ± 0.9%
- IC50 (SW620; Homo sapiens, SW-620, 72 h): 1110 ± 115 nM
- inhibition at 1 µM (SW620; Homo sapiens, SW-620, 72 h): 46.6 ± 1.2%
- inhibition at 1 µM (NCI-H520; Homo sapiens, NCI-H520, 72 h): 44.5 ± 2.2%
